Measured values published in PubChem BioAssay AID256 (DTP/NCI, 2004).
Several values for one entry are separate records, joined by “and”; a condition that tells them apart may be missing. Equal entries are not always repeated. Inconclusive results and toxic doses are left out.

Test system: CD2F1 mice, L1210 leukemia ip, survival T/C
Assay: NCI In Vivo Anticancer Drug Screen. Data for tumor model L1210 Leukemia (intraperitoneal) in CD2F1 (CDF1) mice
Details: endpoint: mean survival time, higher = longer survival
Outline: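 Implant tumor; dose compound or vehicle; measure endpoint in both groups; report treated divided by control.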

[1] = dose: 100.0 mg/kg/injection, schedule: Q04DX003 (ip), vehicle: saline with Tween-80
[2] = dose: 200.0 mg/kg/injection, schedule: Q04DX003 (ip), vehicle: saline with Tween-80
[3] = dose: 50.0 mg/kg/injection, schedule: Q01DX009 (ip), vehicle: saline with Tween-80
[4] = dose: 100.0 mg/kg/injection, schedule: Q01DX009 (ip), vehicle: saline with Tween-80
[5] = dose: 200.0 mg/kg/injection, schedule: Q01DX009 (ip), vehicle: saline with Tween-80
[6] = dose: 100.0 mg/kg/injection, schedule: Q04DX002 (ip), vehicle: saline with Tween-80
[7] = dose: 400.0 mg/kg/injection, schedule: Q04DX003 (ip), vehicle: saline with Tween-80

**Q.** For COc1cc2nc(C(O)C(O)c3nc4cc(OC)c(OC)cc4[nH]3)[nH]c2cc1OC (centres undefined), which T/C [1] is on record?
**A.** The T/C was 101 % of control.

**Q.** And the T/C [2]?
**A.** Its T/C is 98 % of control.

**Q.** Which results are given for Nc1ccn(C2OC(CO)C3OP(=O)(O)OC32)c(=O)n1 (centres undefined)?
**A.** T/C (dose: 12.5 mg/kg/injection, schedule: Q01DX005 (ip), vehicle: water): 96 % of control; T/C (dose: 25.0 mg/kg/injection, schedule: Q01DX005 (ip), vehicle: water): 99 % of control; T/C (dose: 50.0 mg/kg/injection, schedule: Q01DX005 (ip), vehicle: water): 99 % of control; T/C (dose: 100.0 mg/kg/injection, schedule: Q01DX005 (ip), vehicle: water): 94 % of control; T/C (dose: 200.0 mg/kg/injection, schedule: Q01DX005 (ip), vehicle: water): 96 % of control

**Q.** How did the T/C (dose: 100.0 mg/kg/injection, schedule: Q01DX009 (ip), vehicle: saline) turn out when O=C(O)C1C2CC(O)C(C2)C1C(=O)O (centres undefined) was run?
**A.** Its T/C is 97 % of control.

**Q.** What about the T/C (dose: 100.0 mg/kg/injection, schedule: Q04DX003 (ip), vehicle: saline) of the same molecule?
**A.** The T/C was 94 % of control.

**Q.** And the T/C (dose: 200.0 mg/kg/injection, schedule: Q01DX009 (ip), vehicle: saline)?
**A.** Its T/C is 100 % of control.

**Q.** What about the T/C (dose: 200.0 mg/kg/injection, schedule: Q04DX003 (ip), vehicle: saline) of the same molecule?
**A.** The T/C was 94 % of control.

**Q.** And the T/C (dose: 400.0 mg/kg/injection, schedule: Q01DX009 (ip), vehicle: saline)?
**A.** The T/C was 97 % of control.

**Q.** What about the T/C (dose: 400.0 mg/kg/injection, schedule: Q04DX003 (ip), vehicle: saline) of the same molecule?
**A.** Its T/C is 95 % of control.

**Q.** Which T/C (dose: 1.88 mg/kg/injection, schedule: Q04DX003 (ip), vehicle: saline) does the source give for O=CC(O)C(O)C(O)C(O)C(=O)O.[NH-]CC1CCCCC1[NH-].[Pt+2] (centres undefined) here?
**A.** Its T/C is 118 % of control.

**Q.** And the T/C (dose: 7.5 mg/kg/injection, schedule: Q04DX003 (ip), vehicle: saline)?
**A.** Its T/C is 156 % of control.

**Q.** And the T/C (dose: 15.0 mg/kg/injection, schedule: Q04DX003 (ip), vehicle: saline)?
**A.** Its T/C is 166 % of control and 253 % of control.

**Q.** And the T/C (dose: 30.0 mg/kg/injection, schedule: Q04DX003 (ip), vehicle: saline)?
**A.** Its T/C is 151 % of control.

**Q.** For COc1cc(OC)c(NC(=O)Nc2ccc(SCC(=O)O)cc2)cc1Cl, which T/C [3] is on record?
**A.** The T/C was 93 % of control.

**Q.** And the T/C [4]?
**A.** The T/C was 89 % of control.

**Q.** And the T/C [5]?
**A.** Its T/C is 86 % of control.

**Q.** Which results are given for O=C1NC2(CCCC2)C(=O)N2CCCC12 (centres undefined)?
**A.** T/C (dose: 50.0 mg/kg/injection, schedule: Q04DX003 (ip), vehicle: Klucel (hydroxypropylcellulose) (HPC)): 93 % of control; T/C (dose: 100.0 mg/kg/injection, schedule: Q04DX003 (ip), vehicle: Klucel (hydroxypropylcellulose) (HPC)): 93 % of control; T/C (dose: 200.0 mg/kg/injection, schedule: Q04DX003 (ip), vehicle: Klucel (hydroxypropylcellulose) (HPC)): 97 % of control

**Q.** With O=C1OC(=O)C2C3OC(C4CN=NC43)C12 (centres undefined) as the molecule, how does the T/C [6] read?
**A.** Its T/C is 112 % of control.

**Q.** What about the T/C (dose: 200.0 mg/kg/injection, schedule: Q04DX002 (ip), vehicle: saline with Tween-80) of the same molecule?
**A.** The T/C was 118 % of control.

**Q.** How did the T/C [4] turn out when CCOC(=O)c1ccc(OC(=O)Nc2ccc(Cl)cc2)cc1 was run?
**A.** Its T/C is 96 % of control.

**Q.** What about the T/C [1] of the same molecule?
**A.** The T/C was 94 % of control.

**Q.** And the T/C [5]?
**A.** Its T/C is 102 % of control.

**Q.** What about the T/C [2] of the same molecule?
**A.** The T/C was 94 % of control.

**Q.** What about the T/C (dose: 400.0 mg/kg/injection, schedule: Q01DX009 (ip), vehicle: saline with Tween-80) of the same molecule?
**A.** The T/C was 100 % of control.

**Q.** Which results are given for COc1ccc(C2(C(=O)O)CC(C)=C(C)CC2C(=O)O)cc1 (centres undefined)?
**A.** T/C [3]: 88 % of control; T/C [4]: 93 % of control; T/C [1]: 97 % of control; T/C [2]: 95 % of control

**Q.** What does the source list for COc1ccc(OCC(O)CO)cc1 (centres undefined)?
**A.** T/C (dose: 100.0 mg/kg/injection, schedule: Q01DX001 (ip), vehicle: saline): 102 % of control; T/C (dose: 200.0 mg/kg/injection, schedule: Q01DX001 (ip), vehicle: saline): 102 % of control; T/C (dose: 400.0 mg/kg/injection, schedule: Q01DX001 (ip), vehicle: saline): 97 % of control

**Q.** How did the T/C (dose: 4.8 mg/kg/injection, schedule: Q04DX003 (ip), vehicle: Klucel (hydroxypropylcellulose) (HPC)) turn out when O=P(NC12CC3CC(CC(C3)C1)C2)(N1CC1)N1CC1 was run?
**A.** Its T/C is 120 % of control.

**Q.** What about the T/C (dose: 9.6 mg/kg/injection, schedule: Q04DX003 (ip), vehicle: Klucel (hydroxypropylcellulose) (HPC)) of the same molecule?
**A.** Its T/C is 120 % of control.

**Q.** And the T/C (dose: 30.0 mg/kg/injection, schedule: Q04DX003 (ip), vehicle: Klucel (hydroxypropylcellulose) (HPC))?
**A.** The T/C was 162 % of control.

**Q.** Which results are given for Nc1nc(-c2cccc([N+](=O)[O-])c2)c(N=Nc2ccc(Br)cc2)s1?
**A.** T/C (dose: 100.0 mg/kg/injection, schedule: Q01DX001 (ip), vehicle: saline with Tween-80): 96 % of control; T/C (dose: 200.0 mg/kg/injection, schedule: Q01DX001 (ip), vehicle: saline with Tween-80): 87 % of control; T/C (dose: 400.0 mg/kg/injection, schedule: Q01DX001 (ip), vehicle: saline with Tween-80): 90 % of control

**Q.** For Cc1c(O)c2c(c(O)c1Cc1ccc(CN)cc1)C(=O)c1ccccc1C2=O, which T/C (dose: 1.56 mg/kg/injection, schedule: Q01DX009 (ip), vehicle: water) is on record?
**A.** The T/C was 103 % of control.

**Q.** What about the T/C (dose: 3.13 mg/kg/injection, schedule: Q01DX009 (ip), vehicle: water) of the same molecule?
**A.** Its T/C is 101 % of control.

**Q.** What about the T/C (dose: 6.25 mg/kg/injection, schedule: Q01DX009 (ip), vehicle: water) of the same molecule?
**A.** Its T/C is 95 % of control.

**Q.** And the T/C (dose: 12.5 mg/kg/injection, schedule: Q01DX009 (ip), vehicle: water)?
**A.** The T/C was 103 % of control.

**Q.** What about the T/C (dose: 25.0 mg/kg/injection, schedule: Q01DX009 (ip), vehicle: water) of the same molecule?
**A.** The T/C was 87 % of control.

**Q.** For COc1ccc(NC(=S)N(C)C)cc1, which T/C [1] is on record?
**A.** Its T/C is 94 % of control.

**Q.** And the T/C [2]?
**A.** Its T/C is 90 % of control.

**Q.** And the T/C [7]?
**A.** The T/C was 92 % of control.

**Q.** Which T/C [1] does the source give for Nc1ccc2c(c1)[nH]c1ccccc12 here?
**A.** The T/C was 93 % of control.

**Q.** What about the T/C [2] of the same molecule?
**A.** Its T/C is 101 % of control.

**Q.** With O=Cc1cccc(O)c1O as the molecule, how does the T/C [1] read?
**A.** Its T/C is 96 % of control.

**Q.** What about the T/C [2] of the same molecule?
**A.** The T/C was 102 % of control.

**Q.** What about the T/C [7] of the same molecule?
**A.** Its T/C is 103 % of control.

**Q.** Which results are given for N.N.N.N.O=C([O-])C([O-])C(O)C(=O)[O-].O=[N+]([O-])[O-].[Co+3] (centres undefined)?
**A.** T/C (dose: 25.0 mg/kg/injection, schedule: Q04DX002 (ip), vehicle: saline with Tween-80): 104 % of control; T/C (dose: 50.0 mg/kg/injection, schedule: Q04DX002 (ip), vehicle: saline with Tween-80): 110 % of control; T/C [6]: 110 % of control
